Paper PMC9980915, “MYCMI-7: A Small MYC-Binding Compound that Inhibits MYC: MAX Interaction and Tumor Growth in a MYC-Dependent Manner” (Cancer Research Communications, 2022)

Legend:
TOP2A = TOP2A (Homo sapiens, UniProt P11388); experiment: in vitro TOP2A kDNA decatenation assay; type: biochemical
MYC = MYC (Homo sapiens, UniProt P01106); experiment: biochemical
Chain of MYC (P01106 368-454 limits assumed): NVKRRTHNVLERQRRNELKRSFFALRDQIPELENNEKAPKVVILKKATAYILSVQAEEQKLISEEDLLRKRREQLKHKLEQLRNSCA

Chain of TOP2A (P11388 whole entry): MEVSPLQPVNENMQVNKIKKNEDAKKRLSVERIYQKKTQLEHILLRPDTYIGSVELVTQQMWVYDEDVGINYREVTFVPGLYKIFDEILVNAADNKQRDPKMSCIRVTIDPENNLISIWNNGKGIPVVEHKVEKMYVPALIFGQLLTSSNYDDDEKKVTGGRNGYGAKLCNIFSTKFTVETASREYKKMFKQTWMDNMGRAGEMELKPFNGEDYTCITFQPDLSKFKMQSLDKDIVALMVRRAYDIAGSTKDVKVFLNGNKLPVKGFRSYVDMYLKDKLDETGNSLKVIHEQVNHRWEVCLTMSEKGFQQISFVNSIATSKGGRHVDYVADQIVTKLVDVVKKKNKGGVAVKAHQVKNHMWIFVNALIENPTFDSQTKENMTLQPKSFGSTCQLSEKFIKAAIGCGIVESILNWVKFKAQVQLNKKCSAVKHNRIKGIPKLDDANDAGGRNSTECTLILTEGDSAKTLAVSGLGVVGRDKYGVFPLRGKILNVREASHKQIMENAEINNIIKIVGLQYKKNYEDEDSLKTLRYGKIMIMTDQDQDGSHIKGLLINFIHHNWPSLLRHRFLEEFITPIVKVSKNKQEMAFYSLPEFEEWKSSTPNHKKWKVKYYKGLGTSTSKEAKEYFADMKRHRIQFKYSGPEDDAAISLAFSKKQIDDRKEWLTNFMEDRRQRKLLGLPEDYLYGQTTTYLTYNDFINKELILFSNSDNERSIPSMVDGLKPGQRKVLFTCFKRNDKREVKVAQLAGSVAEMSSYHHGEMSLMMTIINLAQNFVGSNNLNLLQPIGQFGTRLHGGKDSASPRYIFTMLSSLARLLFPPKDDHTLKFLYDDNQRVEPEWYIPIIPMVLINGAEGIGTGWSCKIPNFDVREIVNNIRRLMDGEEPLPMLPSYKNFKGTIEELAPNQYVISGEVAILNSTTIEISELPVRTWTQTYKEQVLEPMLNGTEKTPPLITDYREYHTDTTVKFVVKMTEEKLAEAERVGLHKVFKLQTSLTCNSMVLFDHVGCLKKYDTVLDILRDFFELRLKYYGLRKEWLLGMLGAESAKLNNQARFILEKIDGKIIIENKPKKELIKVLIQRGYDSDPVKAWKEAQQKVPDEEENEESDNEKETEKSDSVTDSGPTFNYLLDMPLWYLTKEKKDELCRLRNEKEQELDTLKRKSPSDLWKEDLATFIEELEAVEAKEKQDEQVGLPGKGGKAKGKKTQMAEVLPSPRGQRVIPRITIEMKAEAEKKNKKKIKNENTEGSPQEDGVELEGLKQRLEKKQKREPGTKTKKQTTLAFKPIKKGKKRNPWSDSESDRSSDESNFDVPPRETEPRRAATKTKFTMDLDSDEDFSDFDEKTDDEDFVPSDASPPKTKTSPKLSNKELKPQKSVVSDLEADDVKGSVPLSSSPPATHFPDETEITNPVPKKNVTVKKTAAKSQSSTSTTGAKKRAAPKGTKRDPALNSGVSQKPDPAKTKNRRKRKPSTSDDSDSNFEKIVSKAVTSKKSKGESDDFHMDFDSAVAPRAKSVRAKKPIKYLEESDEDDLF

SMILES	in vitro TOP2A kDNA decatenation assay (TOP2A)	Kd (MYC)
CCN(CC)CC[n+]1ccc2c(C)c3[nH]c4ccccc4c3c(C)c2c1 [MYCMI-7, 2-(5,11-Dimethyl-6H-25-pyrido[4,3-b]carbazol-2-yl)-N,N-diethylethanamine acetate]	> 10 µmol/L	~4 µM
COc1cccc2c1C(=O)c1c(O)c3c(c(O)c1C2=O)C[C@@](O)(C(=O)CO)C[C@@H]3O[C@H]1C[C@H](N)[C@H](O)[C@H](C)O1 [doxorubicin, reference compound]	~ 3 μmol/L	
